These results are taken from patent publication US12533339B2, “Small molecule antiviral drug treatment for human papillomavirus infections” (THE TRUSTEES OF INDIANA UNIVERSITY, priority 2020, dated 2026).

Test [1] has as its target T1, E6 WT/E6AP (Human papillomavirus type 16, UniProt P03126). Description: biochemical. It counts as binding. The settings on record: WT 16E6; for inhibition at 10 µM: 10 μM compound; for inhibition at 100 µM: 100 μM compound.
For test [2], the target named is T1, E6 WT/E6AP. Description: biochemical. In kind it is binding. The settings on record: at 24 h; for IC50: 2 μM E6 WT pre-incubated with compound; for Emax: E6 WT, read-out: BLI maximal Inhibition (max %) E6 WT/E6AP.
Test [3] addresses T2, E6C51S/E6AP (Human papillomavirus type 16, UniProt P03126, C58S). Description: BLI binding assay, E6 C51S binding to captured E6AP. More on the design: species or system HPV-16. The note with it: for BLI maximal Inhibition (max %) E6C51S/E6AP: at 24 h, E6 C51S. (BLI is a label-free optical method that tracks binding on a fibre tip over time.)
For test [4], the target named is T2, E6C51S/E6AP. Description: E6/E6AP binding assay (amylose-bound MBP-16E6, E6AP-BAP activity), C51S 16E6. More on the design: species or system HPV-16. The settings on record: for % Inhibition @ 10 μM E6C51S/E6AP: 10 μM compound; for % Inhibition @ 100 μM E6C51S/E6AP: 100 μM compound.
The target in test [5] is T1, E6 WT/E6AP. Description: biochemical. The settings on record: for Emax: 24 h, read-out: FP maximal inhibition (max %) E6 WT/E6AP; for IC50: FP IC50 at 24 h (μM) E6 WT/E6AP. In kind it is binding.

Like-named read-outs stand apart in the source and are kept apart here.

T2 sequence (P03126 whole entry C58S, looked up): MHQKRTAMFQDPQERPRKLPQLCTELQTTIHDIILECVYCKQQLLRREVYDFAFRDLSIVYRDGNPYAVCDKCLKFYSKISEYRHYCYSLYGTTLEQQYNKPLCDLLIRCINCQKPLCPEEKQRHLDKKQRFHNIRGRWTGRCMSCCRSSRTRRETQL
T1 sequence (P03126 8-158): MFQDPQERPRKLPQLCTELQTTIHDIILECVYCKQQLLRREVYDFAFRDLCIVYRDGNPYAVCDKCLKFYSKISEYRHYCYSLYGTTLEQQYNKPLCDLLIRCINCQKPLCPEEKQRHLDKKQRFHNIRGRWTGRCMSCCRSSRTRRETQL

On to `C=CC(=O)N1CCCN(C(=O)CN2CCc3sccc3C2c2ccccc2C)CC1` (stereo not drawn) [EIN-122, 1-(4-(2-(4-(o-tolyl)-6,7-dihydrothieno[3,2-c]pyridin-5(4H)-yl)acetyl)-1,4-diazepan-1-yl)prop-2-en-1-one], for which, at E6 WT/E6AP [1], the inhibition (in general, the drop in the measured response relative to a control, in per cent) at 10 µM came to 0% and the inhibition at 100 µM amounted to 97 ± 1%. On E6 WT/E6AP [2], the half-maximal inhibitory concentration (IC50) (as a rule, the midpoint of a concentration-inhibition curve) is 62.7 ± 12.1 µM and the Emax is 100%. Further, the “loss of ability to inhibit mutant form E6-Cys51Ser (BLI), in words” value on E6C51S/E6AP [3] (FIG. 1B, E6-Cys51Ser) is on record as “nearly completely lost”.
On to `C=CC(=O)N1CCN(c2nc(-c3ccccc3)nc3ccccc23)CC1` [EIN-157, 1-(4-(2-phenylquinazolin-4-yl)piperazin-1-yl)prop-2-en-1-one], for which the Emax at E6 WT/E6AP [2] turned out to be 100%. Moreover, the “BLI maximal Inhibition (max %) E6C51S/E6AP” value on E6C51S/E6AP [3] was “(max 100%)”.
Take `CC#CC(=O)N1CCN(c2nc(CCc3cccc(OC)c3)nc3sc4c(c23)CCCC4)CC1` [EIN-147, 1-(4-(2-(3-methoxyphenethyl)-5,6,7,8-tetrahydrobenzo[4,5]thieno[2,3-d]pyrimidin-4-yl)piperazin-1-yl)but-2-yn-1-one]: the Emax at E6 WT/E6AP [2] was determined as 100%. Besides, on E6C51S/E6AP [3], the “BLI maximal Inhibition (max %) E6C51S/E6AP” value is listed as “(max 100%)”.
On to `C=CC(=O)N1CCN(c2nc(CCc3cccc(OC)c3)nc3sc4c(c23)CCCC4)CC1` [EIN-143, 1-(4-(2-(3-methoxyphenethyl)-5,6,7,8-tetrahydrobenzo[4,5]thieno[2,3-d]pyrimidin-4-yl)piperazin-1-yl)prop-2-en-1-one], for which, on E6 WT/E6AP [1], the inhibition at 10 µM came out at 44 ± 9% and 100 µM produced 78 ± 3% inhibition. Also, on E6C51S/E6AP [4], the “% Inhibition @ 10 μM E6C51S/E6AP” value turned out to be 19 ± 7% and the “% Inhibition @ 100 μM E6C51S/E6AP” value is 23 ± 10%. In addition, at E6 WT/E6AP [2], the IC50 is 2.5 ± 0.5 µM and the Emax came out at 100%. Moreover, the “FP maximal inhibition (max %) E6 WT/E6AP” value at E6 WT/E6AP [5] (at 24 h) is “(max 93%)”.
With `C=CC(=O)N1CCN(c2nc(CCc3ccc(OC)cc3)nc3sc4c(c23)CCCC4)CC1` [EIN-144, 1-(4-(2-(4-methoxyphenethyl)-5,6,7,8-tetrahydrobenzo[4,5]thieno[2,3-d]pyrimidin-4-yl)piperazin-1-yl)prop-2-en-1-one], at E6 WT/E6AP [1], at 10 µM the inhibition was 12 ± 6% and the inhibition at 100 µM was 45 ± 4%. On E6C51S/E6AP [4], the “% Inhibition @ 10 μM E6C51S/E6AP” value is reported as 9 ± 9% and the “% Inhibition @ 100 μM E6C51S/E6AP” value worked out at 17 ± 5%. For the same molecule, on E6 WT/E6AP [2], the IC50 came out at 1.6 ± 0.5 µM and the Emax was found to be 62%. In addition, at E6 WT/E6AP [5], the Emax came out at 63% and the half-maximal inhibitory concentration (IC50) came to 14.8 ± 1.2 µM.
`C=CC(=O)N1CCN(c2nc(NCc3ccccc3)nc3sc4c(c23)CCCC4)CC1` [EIN-134, 1-(4-(2-(benzylamino)-5,6,7,8-tetrahydrobenzo[4,5]thieno[2,3-d]pyrimidin-4-yl)piperazin-1-yl)prop-2-en-1-one]: at E6 WT/E6AP [1], at 10 µM the inhibition was 18 ± 6% and 100 µM produced 35 ± 4% inhibition. Also, at E6C51S/E6AP [4], the “% Inhibition @ 10 μM E6C51S/E6AP” value is recorded as 0% and the “% Inhibition @ 100 μM E6C51S/E6AP” value is 0%. Also, at E6 WT/E6AP [2], the concentration for half-maximal inhibition (IC50) is 32.6 ± 19.2 µM and the Emax was 100%. At E6 WT/E6AP [5], the Emax was determined as 11% and half-maximal inhibition (IC50) was put at 12.1 ± 0.7 µM.
As for `C=CC(=O)N1CCN(c2nc(CCc3ccccc3OC)nc3sc4c(c23)CCCC4)CC1` [EIN-145, 1-(4-(2-(2-methoxyphenethyl)-5,6,7,8-tetrahydrobenzo[4,5]thieno[2,3-d]pyrimidin-4-yl)piperazin-1-yl)prop-2-en-1-one], on E6 WT/E6AP [1], at 10 µM the inhibition was 32 ± 4% and the inhibition at 100 µM stood at 51 ± 2%. Besides, on E6C51S/E6AP [4], the “% Inhibition @ 10 μM E6C51S/E6AP” value was 20 ± 6% and the “% Inhibition @ 100 μM E6C51S/E6AP” value is reported as 23 ± 7%. On E6 WT/E6AP [2], the IC50 worked out at 2 ± 0.9 µM and the Emax was 65%. Also, at E6 WT/E6AP [5], the Emax was 59% and the 50% inhibitory concentration (IC50) stood at 15 ± 1.2 µM.
With `C=CC(=O)N1CCN(c2nc(Cc3ccccc3)nc3ccccc23)CC1` [EIN-156, 1-(4-(2-benzylquinazolin-4-yl)piperazin-1-yl)prop-2-en-1-one], on E6 WT/E6AP [2], the Emax came out at 100%. Moreover, the “BLI maximal Inhibition (max %) E6C51S/E6AP” value on E6C51S/E6AP [3] is on record as “(max 100%)”.
